Values quoted from earlier work as cited in patent US9414584B2, “Stabilized hypohalous acid solutions” (PURICORE, INC., priority 2011, dated 2016).
Like-named read-outs stand apart in the source and are kept apart here.

What was measured:
E. coli [1] = conditions: 2.6 ppm; dilute bacterial suspensions; about 5 minutes
E. coli [2] = test system: E. coli
Escherichia coli = Escherichia coli exposed to hypochlorous acid

| SMILES | concentration required for 100% kill in 5 minutes (A. aerogenes) | concentration required for 100% kill in 5 minutes (S. typhosa) | growth inhibition of E. coli (E. coli [1]) | concentration required for 100% kill in 5 minutes (E. coli [2]) | concentration required for 100% kill in 5 minutes (S. dysenteriae) | time to lose viability (Escherichia coli) | time for 25 mg/mL solution to reach 20 mg/mL of free residual chlorine (20° C., Arrhenius calculation from studies at 50° C. and 70° C.) | loss of titrable chlorine (in the first 6 months) | loss of titrable chlorine (within a year) |
| --- | --- | --- | --- | --- | --- | --- | --- | --- | --- |
| OCl [hypochlorous acid] | 0.08 ppm | 0.06 ppm | 100% | 0.03 ppm | 0.05 ppm | less than 100 ms | – | – | – |
| OCl [sodium hypochlorite solution, sodium hypochlorite] | – | – | – | – | – | – | 166 days | approximately 20% | up to 60% |
